These are literature values, as cited in patent publication US5468499A, “Liposomes containing the salt of phosphoramide mustard and related compounds” (Ohio State University, priority 1993, dated 1995).

This data set deals with tumor.

As to `O=P1(N(CCCl)CCCl)NCCCO1` (stereo not shown) [cyclophosphamide], the “tumoricidal activity of the drug itself” value is “not directly tumoricidal”.
